Assay results published in patent EP0210284B1, “1,3-Dithiol-2-ylidene derivatives” (priority 1985, dated 1987).
Like-named read-outs stand apart in the source and are kept apart here.

Columns and labels:
[1] = tested on: Acute Liver Injury Induced by Carbon Tetrachloride; experiment: Protective effect on acute liver injury induced by carbon tetrachloride; format: in vivo, mice (ddY mice); settings: for Liver Damage Index: 50mg/kg orally in olive oil 6 hours before carbon tetrachloride (0.05ml/kg orally), visual score 0: normal, 2: slightly, 4: distinctly, 6: remarkably injured, n=5, CCl4 alone 6.0; for inhibition in vivo at 50 mg/kg: Mus musculus, po, 50mg/kg orally 6 hours before carbon tetrachloride (0.05ml/kg orally), CCl4 alone 0, Normal 100
Procedure: A test compound was dissolved or suspended in olive oil and administered orally at a dose of 50mg/kg to mice (ddY mice, ? , 23 ± 2g, n=5). After 6 hours, carbon tetrachloride (0.05ml/kg) was administered orally. 24 Hours after the administration of carbon tetrachloride, BSP (sodium sulfobromophthalene; 75mg/kg) was administered intravenously. Thirty minutes later, the cardiac blood was collected, and GPT (glutamic-pyruvic transaminase) activity and the retention rate of BSP in the plasma were measured. Further, the liver injury immediately after the collection of the blood was visually observed and evaluated by the following score for liver damage index. 0: normal 2: Slightly injured 4: distinctly injured 6: remarkably injured

[2] = tested on: Acute Liver Injury Induced by D-Galactosamine; experiment: Protective effect on acute liver injury induced by D-galactosamine; format: in vivo, rats (SD strain); settings: 50mg/kg orally twice daily for 6 days, D-galactosamine 200mg/kg x 3 i.p.; for Glucose / P-GPT: plasma 48 hours after first injection; for Glucose: D-Galactosamine alone 32±4, Normal 142±4; for P-GPT: D-Galactosamine alone 4825±590, Normal 29±2; for ALP: alkaline phosphatase in plasma, D-Galactosamine alone 176±6, Normal 500±63
Procedure: A test compound was dissolved or suspended in olive oil and orally administered twice daily for 6 days at a dose of 50mg/kg to rats (SD strain, ? , 225 ±15g, 7 weeks-old, n=5). On the 6th day, D-galactosamine (200mg/kg x 3) was intraperitoneally administered three times at 3-hour intervals. 48 Hours after the first injection of D-galactosamine, the animals were sacrificed by exsanguination from the abdominal aorta. The protective effect was evaluated by examining the biochemical parameters (p-GPT, glucose, alkaline phosphatase) in plasma.

[3] = tested on: Fatty Liver Induced by Carbon Tetrachloride; experiment: Therapeutic effect on fatty liver induced by carbon tetrachloride; format: in vivo, rats (SD strain); set-up: Apoprotein: unit not given here
Procedure: Carbon tetrachloride (1ml/kg) was subcutaneously administered to rats (SD strain, ? , 38 week-old, n=5) for 4 days. Upon expiration of 3 days from the administration of carbon tetrachloride, Compound 6 was orally given successively for 7 days at the dose of 50mg/kg. On the 8th day, the animals were sacrificed by exsanguination. The therapeutic effect was evaluated by examining the content of triglyceride in the liver and the concentration of apoprotein B in the plasma. […]

[4] = tested on: Protein Synthesis in Liver; experiment: Effect on protein synthesis in liver; format: in vivo, rats (Wister strain); settings: 100mg/kg orally for 3 days
Procedure: Compound 6 was dissolved in olive oil and orally administered successively for 3 days at a dose of 100mg/kg to rats (Wister strain, ? , 180±10g, 6 week-old, n=5). 24 Hours after the administration of the test compound was completed, the animals were sacrificed. The effect on the protein synthesis in the liver was evaluated by determining the liver weight and protein content.

mice (ddY mice) = experiment: Acute toxicity test; format: in vivo; settings: oral in olive oil, mortality one week after the administration, n=5
Procedure: A test compound was dissolved or suspended in olive oil and administered orally to mice (ddY mice, ? , 23±2g, n=5). The acute toxicity value (LD₅₀) was determined from the mortality one week after the administration.

[5] = 24.5 h, retention rate of BSP in plasma 30 minutes after BSP 75mg/kg i.v., read-out: % Prophylaxis BSP
[6] = plasma GPT about 24.5 hours after CCl4, read-out: % Prophylaxis p-GPT

| SMILES | Liver Damage Index [1] | inhibition in vivo at 50 mg/kg [1, 5] | inhibition in vivo at 50 mg/kg [1, 6] | Glucose [2] | P-GPT [2] | ALP [2] | effect for curing the fatty liver ([3]; 50mg/kg orally for 7 days, rats with CCl4-induced fatty liver, statement in words) | Apoprotein ([3]; apoprotein B in plasma, carbon tetrachloride 1ml/kg s.c. for 4 days, compound 50mg/kg orally for 7 days, CCl4 alone 66± 2, Normal 125± 8) | Triglyceride ([3]; carbon tetrachloride 1ml/kg s.c. for 4 days, compound 50mg/kg orally for 7 days, liver content on the 8th day, CCl4 alone 99± 6, Normal 33± 5) | Liver Weight ([4]; 24 hours after last administration, Control 6.3±0.1) | Liver Protein ([4]; 24 hours after last administration, Control 883±79) | effect for stimulating the protein metabolic function of the liver ([4]; statement in words) | acute toxicity value (LD50) (mice (ddY mice)) |
| --- | --- | --- | --- | --- | --- | --- | --- | --- | --- | --- | --- | --- | --- |
| CC(=O)C(C(=O)c1nc2ccccc2[nH]1)=C1SC=CS1 [Compound 47, 2-(1,3-dithiol-2-ylidene)-1-(2-benzimidazolyl)-1,3-butanedione] | 2.4 | 103% | 91% | 55 ± 2 mg/dL | 2938±694 U/l | 287±25 U/l |  |  |  |  |  |  |  |
| CC(=O)C(C(=O)c1ccccc1)=C1SC=CS1 [Compound 6, 2-(1,3-dithiol-2-ylidene)-1-phenyl-1,3-butanedione] | 0.4 | 103% | 100% | 81 ± 9 mg/dL | 908±248 U/l | 398±45 U/l | significant effect for curing the fatty liver | 112± 23 | 33± 7 mg/g-liver | 8.6±0.3 g/100g b.w. | 1247±62 mg/100g b.w. | substantial effect for stimulating the protein metabolic function of the liver | at least 2 g |
